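Five compound concentrations were applied to cells in 96-well plates for 48 hours; endpoints were derived by simple linear interpolation of the resulting dose-response curve. TGI: concentration producing complete growth inhibition.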
Test system: HCT-15 colon
Assay: inhibition of tumour cell growth, NCI panel, 48 h

Compound	TGI [µM]
COc1cc(/C=C2/SC(c3ccccc3)N(c3cccc(NC(C)=O)c3)C2=O)cc(OC)c1OC (configuration not stated)	> 100
CC(=O)Oc1ccc2[nH]c3c(C)c4cccc-4ccc3c2c1	5

Test system: PC-3 prostate
Assay: inhibition of tumour cell growth, NCI panel, 48 h

Compound	TGI [µM]
CC(C)/C(Cl)=N\OC(=O)Nc1ccc(F)cc1	31.4
COc1cc(N2C(=O)C(=O)C3(CCCCC3)C2=O)cc(OC)c1OC	> 100
Cc1c(S(=O)(=O)/N=C(\NN)Nc2ccc(Cl)cc2)sc2ccc(Cl)cc12	29
CC(=O)Oc1ccc2[nH]c3c(C)c4cccc-4ccc3c2c1	3.37

Test system: HS 578T breast
Assay: inhibition of tumour cell growth, NCI panel, 48 h

Compound	TGI [µM]
CC(C)/C(Cl)=N\OC(=O)Nc1ccc(F)cc1	71.9
Cc1c(S(=O)(=O)/N=C(\NN)Nc2ccc(Cl)cc2)sc2ccc(Cl)cc12	59.1
COc1cc(/C=C2/SC(c3ccccc3)N(c3cccc(NC(C)=O)c3)C2=O)cc(OC)c1OC (configuration not stated)	> 100
CC(=O)Oc1ccc2[nH]c3c(C)c4cccc-4ccc3c2c1	7.74

Test system: HCT-116 colon
Assay: inhibition of tumour cell growth, NCI panel, 48 h

Compound	TGI [µM]
CC(C)/C(Cl)=N\OC(=O)Nc1ccc(F)cc1	22.6
COc1cc(N2C(=O)C(=O)C3(CCCCC3)C2=O)cc(OC)c1OC	> 100
Cc1c(S(=O)(=O)/N=C(\NN)Nc2ccc(Cl)cc2)sc2ccc(Cl)cc12	26.4
COc1cc(/C=C2/SC(c3ccccc3)N(c3cccc(NC(C)=O)c3)C2=O)cc(OC)c1OC (configuration not stated)	> 100
CC(=O)Oc1ccc2[nH]c3c(C)c4cccc-4ccc3c2c1	4.31

Test system: MALME-3M melanoma
Assay: inhibition of tumour cell growth, NCI panel, 48 h

Compound	TGI [µM]
CC(C)/C(Cl)=N\OC(=O)Nc1ccc(F)cc1	3.91
COc1cc(N2C(=O)C(=O)C3(CCCCC3)C2=O)cc(OC)c1OC	> 100
Cc1c(S(=O)(=O)/N=C(\NN)Nc2ccc(Cl)cc2)sc2ccc(Cl)cc12	39.1
COc1cc(/C=C2/SC(c3ccccc3)N(c3cccc(NC(C)=O)c3)C2=O)cc(OC)c1OC (configuration not stated)	> 100
CC(=O)Oc1ccc2[nH]c3c(C)c4cccc-4ccc3c2c1	3.63

Test system: CAKI-1 renal
Assay: inhibition of tumour cell growth, NCI panel, 48 h

Compound	TGI [µM]
COc1cc(N2C(=O)C(=O)C3(CCCCC3)C2=O)cc(OC)c1OC	> 100
Cc1c(S(=O)(=O)/N=C(\NN)Nc2ccc(Cl)cc2)sc2ccc(Cl)cc12	34.4
COc1cc(/C=C2/SC(c3ccccc3)N(c3cccc(NC(C)=O)c3)C2=O)cc(OC)c1OC (configuration not stated)	> 100
CC(=O)Oc1ccc2[nH]c3c(C)c4cccc-4ccc3c2c1	3.41

Test system: COLO 205 colon
Assay: inhibition of tumour cell growth, NCI panel, 48 h

Compound	TGI [µM]
CC(C)/C(Cl)=N\OC(=O)Nc1ccc(F)cc1	4.42
COc1cc(N2C(=O)C(=O)C3(CCCCC3)C2=O)cc(OC)c1OC	> 100
Cc1c(S(=O)(=O)/N=C(\NN)Nc2ccc(Cl)cc2)sc2ccc(Cl)cc12	33.4
COc1cc(/C=C2/SC(c3ccccc3)N(c3cccc(NC(C)=O)c3)C2=O)cc(OC)c1OC (configuration not stated)	> 100

Test system: UACC-257 melanoma
Assay: inhibition of tumour cell growth, NCI panel, 48 h

Compound	TGI [µM]
CC(C)/C(Cl)=N\OC(=O)Nc1ccc(F)cc1	28.3
COc1cc(N2C(=O)C(=O)C3(CCCCC3)C2=O)cc(OC)c1OC	> 100
Cc1c(S(=O)(=O)/N=C(\NN)Nc2ccc(Cl)cc2)sc2ccc(Cl)cc12	33.8
COc1cc(/C=C2/SC(c3ccccc3)N(c3cccc(NC(C)=O)c3)C2=O)cc(OC)c1OC (configuration not stated)	> 100
CC(=O)Oc1ccc2[nH]c3c(C)c4cccc-4ccc3c2c1	4.07

Test system: UACC-62 melanoma
Assay: inhibition of tumour cell growth, NCI panel, 48 h

Compound	TGI [µM]
CC(C)/C(Cl)=N\OC(=O)Nc1ccc(F)cc1	40
COc1cc(N2C(=O)C(=O)C3(CCCCC3)C2=O)cc(OC)c1OC	> 100
Cc1c(S(=O)(=O)/N=C(\NN)Nc2ccc(Cl)cc2)sc2ccc(Cl)cc12	27.6
COc1cc(/C=C2/SC(c3ccccc3)N(c3cccc(NC(C)=O)c3)C2=O)cc(OC)c1OC (configuration not stated)	> 100
CC(=O)Oc1ccc2[nH]c3c(C)c4cccc-4ccc3c2c1	3.42

Test system: LOX IMVI melanoma
Assay: inhibition of tumour cell growth, NCI panel, 48 h

Compound	TGI [µM]
CC(C)/C(Cl)=N\OC(=O)Nc1ccc(F)cc1	5.73
COc1cc(N2C(=O)C(=O)C3(CCCCC3)C2=O)cc(OC)c1OC	> 100
Cc1c(S(=O)(=O)/N=C(\NN)Nc2ccc(Cl)cc2)sc2ccc(Cl)cc12	35.1
COc1cc(/C=C2/SC(c3ccccc3)N(c3cccc(NC(C)=O)c3)C2=O)cc(OC)c1OC (configuration not stated)	> 100
CC(=O)Oc1ccc2[nH]c3c(C)c4cccc-4ccc3c2c1	4.4

Test system: HL-60(TB) leukemia
Assay: inhibition of tumour cell growth, NCI panel, 48 h

Compound	TGI [µM]
CC(C)/C(Cl)=N\OC(=O)Nc1ccc(F)cc1	3.72
COc1cc(N2C(=O)C(=O)C3(CCCCC3)C2=O)cc(OC)c1OC	> 100
Cc1c(S(=O)(=O)/N=C(\NN)Nc2ccc(Cl)cc2)sc2ccc(Cl)cc12	90.8
COc1cc(/C=C2/SC(c3ccccc3)N(c3cccc(NC(C)=O)c3)C2=O)cc(OC)c1OC (configuration not stated)	> 100
CC(=O)Oc1ccc2[nH]c3c(C)c4cccc-4ccc3c2c1	6.87

Test system: U251 CNS
Assay: inhibition of tumour cell growth, NCI panel, 48 h

Compound	TGI [µM]
CC(C)/C(Cl)=N\OC(=O)Nc1ccc(F)cc1	29
COc1cc(N2C(=O)C(=O)C3(CCCCC3)C2=O)cc(OC)c1OC	> 100
Cc1c(S(=O)(=O)/N=C(\NN)Nc2ccc(Cl)cc2)sc2ccc(Cl)cc12	30.4

Test system: NCI-H460 lung
Assay: inhibition of tumour cell growth, NCI panel, 48 h

Compound	TGI [µM]
CC(C)/C(Cl)=N\OC(=O)Nc1ccc(F)cc1	36.1
Cc1c(S(=O)(=O)/N=C(\NN)Nc2ccc(Cl)cc2)sc2ccc(Cl)cc12	34.8
COc1cc(/C=C2/SC(c3ccccc3)N(c3cccc(NC(C)=O)c3)C2=O)cc(OC)c1OC (configuration not stated)	> 100
CC(=O)Oc1ccc2[nH]c3c(C)c4cccc-4ccc3c2c1	10.3

Test system: RPMI-8226 leukemia
Assay: inhibition of tumour cell growth, NCI panel, 48 h

Compound	TGI [µM]
CC(C)/C(Cl)=N\OC(=O)Nc1ccc(F)cc1	4.19
COc1cc(N2C(=O)C(=O)C3(CCCCC3)C2=O)cc(OC)c1OC	> 100
Cc1c(S(=O)(=O)/N=C(\NN)Nc2ccc(Cl)cc2)sc2ccc(Cl)cc12	> 100
COc1cc(/C=C2/SC(c3ccccc3)N(c3cccc(NC(C)=O)c3)C2=O)cc(OC)c1OC (configuration not stated)	> 100
CC(=O)Oc1ccc2[nH]c3c(C)c4cccc-4ccc3c2c1	11

Test system: OVCAR-4 ovarian
Assay: inhibition of tumour cell growth, NCI panel, 48 h

Compound	TGI [µM]
COc1cc(N2C(=O)C(=O)C3(CCCCC3)C2=O)cc(OC)c1OC	> 100
Cc1c(S(=O)(=O)/N=C(\NN)Nc2ccc(Cl)cc2)sc2ccc(Cl)cc12	30.1
COc1cc(/C=C2/SC(c3ccccc3)N(c3cccc(NC(C)=O)c3)C2=O)cc(OC)c1OC (configuration not stated)	> 100
CC(=O)Oc1ccc2[nH]c3c(C)c4cccc-4ccc3c2c1	3.5

Test system: A549 NSCLC
Assay: inhibition of tumour cell growth, NCI panel, 48 h

Compound	TGI [µM]
CC(C)/C(Cl)=N\OC(=O)Nc1ccc(F)cc1	35.9
COc1cc(N2C(=O)C(=O)C3(CCCCC3)C2=O)cc(OC)c1OC	> 100
Cc1c(S(=O)(=O)/N=C(\NN)Nc2ccc(Cl)cc2)sc2ccc(Cl)cc12	31.6
